The record followed here is ChEMBL document CHEMBL1149508, “From arylureas to biarylamides to aminoquinazolines: discovery of a novel, potent TRPV1 antagonist” (Bioorg Med Chem Lett, 2006).

Series [1] has as its target Transient receptor potential cation channel subfamily V member 1 (Rattus norvegicus, UniProt O35433). The series can be described thus: Antagonist activity against low pH(5.0-5.5)-activated rat VR1. It counts as functional.
Series [2] concerns the target T1, Transient receptor potential cation channel subfamily V member 1 (Homo sapiens, UniProt Q8NER1). The series can be described thus: Agonist activity at human VR1 expressed in HEK293 cells upto 4 uM. It is filed as functional, cell-based.
Series [3] in a line: Aqueous solubility at pH 7.4 by HTsol assay. As to conditions: buffer. It counts as physicochemical.
Series [4] deals with T1, Transient receptor potential cation channel subfamily V member 1. The experiment in a line: Antagonist activity against capsaicin-activated human VR1 by FLIPR assay. It is filed as functional.
Series [5] in a line: Bioavailability in rat. It counts as ADME, organism-based. As to conditions: in vivo.
Series [6] can be described thus: Bioavailability in rat at 3 mg/kg, iv. It counts as ADME, organism-based. As to conditions: in vivo.
A short description of series [7]: Half life in rat at 3 mg/kg, iv. It counts as ADME, organism-based. Also on record: dose 3 mg/kg, route intravenous. As to conditions: in vivo.
The nature of series [8]: Tmax in rat at 3 mg/kg, iv. It is filed as ADME, organism-based. Also on record: dose 3 mg/kg, route intravenous. As to conditions: in vivo.
A short description of series [9]: Clearance in rat at 3 mg/kg, iv. As to conditions: in vivo. It is filed as ADME, organism-based. Also on record: dose 3 mg/kg, route intravenous.
Series [10] is described as follows: Volume of distribution in rat at 3 mg/kg, iv. As to conditions: in vivo, read-out: Vdss. Also on record: dose 3 mg/kg, route intravenous. It is filed as ADME, organism-based.

In brackets after ≈: the same amount, converted by molar mass. Activity calls are given as the source filed them. No cut-off for these calls is given here.

T1 sequence (Q8NER1 whole entry): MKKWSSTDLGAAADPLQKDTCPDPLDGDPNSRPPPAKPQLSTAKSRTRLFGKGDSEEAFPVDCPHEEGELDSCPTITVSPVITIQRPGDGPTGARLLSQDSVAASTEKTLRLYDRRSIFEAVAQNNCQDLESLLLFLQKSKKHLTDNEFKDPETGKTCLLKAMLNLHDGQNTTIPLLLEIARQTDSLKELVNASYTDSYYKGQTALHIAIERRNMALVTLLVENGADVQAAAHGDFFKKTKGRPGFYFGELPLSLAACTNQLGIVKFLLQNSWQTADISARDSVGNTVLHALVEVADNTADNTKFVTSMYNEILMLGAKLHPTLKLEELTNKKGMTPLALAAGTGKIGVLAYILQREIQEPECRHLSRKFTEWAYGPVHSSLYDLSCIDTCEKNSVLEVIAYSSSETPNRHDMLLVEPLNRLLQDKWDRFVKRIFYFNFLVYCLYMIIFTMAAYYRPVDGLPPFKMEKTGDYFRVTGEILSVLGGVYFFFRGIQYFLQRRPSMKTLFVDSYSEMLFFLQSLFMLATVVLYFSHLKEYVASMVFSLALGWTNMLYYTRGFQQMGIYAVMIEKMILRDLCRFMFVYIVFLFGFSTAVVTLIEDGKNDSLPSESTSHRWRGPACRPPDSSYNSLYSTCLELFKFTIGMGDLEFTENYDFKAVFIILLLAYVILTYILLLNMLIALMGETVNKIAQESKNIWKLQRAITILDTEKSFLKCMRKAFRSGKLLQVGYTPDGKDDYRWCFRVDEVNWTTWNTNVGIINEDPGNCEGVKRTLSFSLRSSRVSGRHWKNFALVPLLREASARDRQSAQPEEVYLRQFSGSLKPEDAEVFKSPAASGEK
Transient receptor potential cation channel subfamily V member 1 (Rattus norvegicus, UniProt O35433), sequence (O35433 whole entry): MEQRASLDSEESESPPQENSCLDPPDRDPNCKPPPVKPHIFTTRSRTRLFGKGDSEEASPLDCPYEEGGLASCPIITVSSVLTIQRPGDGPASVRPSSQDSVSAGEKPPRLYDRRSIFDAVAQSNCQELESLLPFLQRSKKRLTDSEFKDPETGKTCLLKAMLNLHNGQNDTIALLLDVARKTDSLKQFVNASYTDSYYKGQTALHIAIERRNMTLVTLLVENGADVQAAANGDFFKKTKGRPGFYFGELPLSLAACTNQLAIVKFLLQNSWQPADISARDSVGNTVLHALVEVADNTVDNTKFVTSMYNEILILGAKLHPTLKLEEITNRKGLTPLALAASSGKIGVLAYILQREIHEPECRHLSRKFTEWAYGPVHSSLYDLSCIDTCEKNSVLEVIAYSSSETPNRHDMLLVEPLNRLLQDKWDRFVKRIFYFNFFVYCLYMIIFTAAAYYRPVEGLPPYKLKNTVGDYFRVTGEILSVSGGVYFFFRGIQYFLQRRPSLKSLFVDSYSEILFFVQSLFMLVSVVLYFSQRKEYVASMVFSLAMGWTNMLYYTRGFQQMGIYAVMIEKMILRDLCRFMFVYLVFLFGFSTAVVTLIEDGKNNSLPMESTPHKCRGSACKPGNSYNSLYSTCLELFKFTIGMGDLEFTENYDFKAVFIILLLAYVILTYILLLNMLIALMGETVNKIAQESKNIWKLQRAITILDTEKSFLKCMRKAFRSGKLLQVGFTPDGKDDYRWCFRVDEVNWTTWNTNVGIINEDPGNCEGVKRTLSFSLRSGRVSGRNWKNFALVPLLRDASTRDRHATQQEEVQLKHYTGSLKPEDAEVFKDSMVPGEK

For orientation: IC50 means the concentration that inhibits the measured activity by half. Compound `O=C(Nc1ccc(C(F)(F)F)cc1)c1ccc(-c2ncccc2C(F)(F)F)cc1` came in with an IC50 in [1] of 26 nM. Besides, the outcome in [2] was inactive.
The solubility is the concentration that dissolves in the medium under given conditions. A higher solubility goes with a readily soluble substance. In series [3], `CC(C)(C)c1ccc(NC(=O)c2ccc(-c3ncccc3C(=O)O)cc2)cc1` returned a solubility of 104 µg/mL (≈ 278 µM). In addition, the IC50 in series [1] was 560 nM; in series [4] it was > 4000 nM.
For orientation: bioavailability means the share of a dose that reaches the circulation, judged against a reference dose that is usually intravenous. Lower therefore signals poor availability. With `CC(C)(C)c1ccc(NC(=O)c2ccc(-c3ncccc3C(F)(F)F)cc2)cc1`, the IC50 was determined as 4 nM in series [1] and 6 nM in [4]. In series [5], this compound gave a bioavailability of 2%.
In the case of `CCCNCc1cccnc1-c1ccc(C(=O)Nc2ccc(C(C)(C)C)cc2)cc1`, the 50% inhibitory concentration (IC50) came to 639 nM in series [1] and 4300 nM in series [4].
Regarding `O=C(Nc1ccc(C(F)(F)F)cc1)c1ccc(-c2ncccc2C(F)(F)F)nc1O`, the IC50 in series [1] is 764 nM; in series [4], > 4000 nM.
On the same counts, the results for `O=C(Nc1ccc(C(F)(F)F)cn1)c1ccc(-c2ncccc2C(F)(F)F)cc1` are 65 nM and 24 nM.
The compound `CN(C)Cc1cccnc1-c1ccc(C(=O)Nc2ccc(C(C)(C)C)cc2)cc1` returned a solubility in [3] of 50 µg/mL (≈ 129 µM). In addition, the IC50 turned out to be 234 nM in [1] and 746 nM in series [4].
Regarding `CCS(=O)(=O)Nc1cccnc1-c1ccc(C(=O)Nc2ccc(C(C)(C)C)cc2)cc1`, the solubility in series [3] is 1 µg/mL (≈ 2.29 µM). The half-maximal inhibitory concentration (IC50) in series [1] was 4 nM; in series [4], 49 nM.
As a reminder, the half-life is the time in which the quantity being followed falls by half. A lower half-life goes with fast loss. As a reminder, the Tmax is the time at which the peak concentration occurs. What is called clearance is the volume of plasma or blood freed of the substance per unit of time. Low readings indicate a low capacity for elimination, high ones a high capacity for elimination. Consider `C[C@@H]1CN(c2ncccc2C(F)(F)F)CCN1C(=O)Nc1ccc(C(F)(F)F)cc1`, for which the bioavailability in series [6] was determined as 27%. In addition, the half-life in series [7] is 7.2 h. Moreover, in series [8], the Tmax was found to be 0.5 h. Also, in [9], the clearance turned out to be 39 mL/min/kg. For the same compound, the IC50 in series [1] stood at 11 nM; in series [4], 17 nM. For the same compound, the Vd in [10] stood at 12 L/kg. Also, the outcome in series [2] was inactive.
As for `Cc1cccnc1-c1ccc(C(=O)Nc2ccccn2)cc1`, the IC50 in [1] and in series [4] was > 4000 nM in each case.
`Cc1cc(C(=O)Nc2ccc(C(F)(F)F)cc2)ccc1-c1ncccc1C(F)(F)F`: the IC50 was found to be 192 nM in series [1] and 257 nM in series [4].
In turn, `CN(c1cccnc1-c1ccc(C(=O)Nc2ccc(C(C)(C)C)cc2)cc1)S(C)(=O)=O` yielded a solubility in series [3] of 1 µg/mL (≈ 2.29 µM). The IC50 in series [1] was determined as 9 nM; in series [4], 39 nM.
Take `O=C(Nc1ccc(C(F)(F)F)cc1)c1ccc(-c2ncccc2C(F)(F)F)cc1O`: the results for the IC50 in series [1] and in [4] were 36 nM and 43 nM, respectively.
In the case of `CC(C)(C)c1ccc(NC(=O)c2ccc(-c3ncccc3NS(=O)(=O)c3ccccc3)cc2)cc1`, in series [3], the concentration in solution (solubility) was 1 µg/mL (≈ 2.06 µM). The IC50 in series [1] was determined as 166 nM; in series [4], 91 nM.
With `CC(C)(C)c1ccc(NC(=O)c2ccc(-c3ncccc3-c3ncc[nH]3)cc2)cc1`, the IC50 in series [1] is 694 nM; in [4] it was 3670 nM.
On the same counts, the results for `CCCCS(=O)(=O)Nc1cccnc1-c1ccc(C(=O)Nc2ccc(C(C)(C)C)cc2)cc1` are 141 nM and 162 nM.
Turning to `CC(C)(C)c1ccc(NC(=O)c2ccc(-c3ncccc3N(S(C)(=O)=O)S(C)(=O)=O)cc2)cc1`, the concentration in solution in series [3] (solubility) came to 1 µg/mL (≈ 1.99 µM). Moreover, the figures for the IC50 in [1] and in series [4] were 0.4 nM and 0.8 nM, respectively.
For the compound `O=C(Nc1ccc(C(F)(F)F)cc1)c1ccc(-c2ncccc2C(F)(F)F)cc1[N+](=O)[O-]`, the results for the IC50 in series [1] and in series [4] were 222 nM and 392 nM, respectively.
Consider `CC(C)(C)c1ccc(NC(=O)c2ccc(-c3ncccc3Cl)cc2)cc1`, for which the values for the IC50 in [1] and in series [4] were 2 nM and 8 nM, respectively.
In the case of `CC(C)(C)c1ccc(NC(=O)c2ccc(-c3ncccc3F)cc2)cc1`, the IC50 in [1] was found to be 1 nM; in series [4], 3 nM.
On the same counts, the results for `O=C(Nc1ccc(C(F)(F)F)cc1)c1ccc(-c2ncccc2C(F)(F)F)cc1Cl` are 2400 nM and > 4000 nM.
In the case of `CC(C)(C)c1ccc(NC(=O)c2ccc(-c3ncccc3NS(C)(=O)=O)cc2)cc1`, the values for the IC50 in [1] and in [4] were 35 nM and 152 nM, respectively.
Consider `CC(C)(C)c1ccc(NC(=O)c2ccc(-c3ncccc3NS(=O)(=O)Cc3ccccc3)cc2)cc1`, for which the IC50 in series [1] is 159 nM; in series [4] it was 377 nM.
The corresponding values for `Cc1cc(C(=O)Nc2ccc(C(F)(F)F)cc2)ccc1-c1ncccc1C` are 190 nM and 233 nM.
The compound `FC(F)(F)c1ccc(Nc2ncnc3cc(-c4ncccc4C(F)(F)F)ccc23)cc1` [NGD-8243] registered a bioavailability in [6] of 99%. The half-life in series [7] is 8.1 h. For the same compound, the Tmax in series [8] is 0.7 h. The same compound had a clearance in [9] of 23 mL/min/kg. In series [1], it took 1.4 nM to reach half-maximal inhibition (IC50). The Vd in [10] turned out to be 12.5 L/kg. Moreover, the result in [2] was inactive.
`CS(=O)(=O)Nc1cc(-c2ncccc2C(F)(F)F)ccc1C(=O)Nc1ccc(C(F)(F)F)cc1`: the IC50 in series [1] came out at 722 nM; in series [4] it was 1020 nM.
`O=C(Nc1ccc(C(F)(F)F)cc1)c1ccc(-c2ncccc2C(F)(F)F)nc1`: the results for the IC50 in series [1] and in [4] were 56 nM and 60 nM, respectively.
On the same counts, the results for `Cc1cccnc1-c1ccc(C(=O)Nc2ccc(C(C)C)cc2)cc1` are 43 nM and 73 nM.
In the case of `Cc1nnc(-c2cccnc2-c2ccc(C(=O)Nc3ccc(C(C)(C)C)cc3)cc2)o1`, the IC50 in series [1] amounted to 34 nM; in [4], 387 nM.
The corresponding values for `CC(C)(C)c1ccc(NC(=O)c2ccc(-c3ncccc3NC3CCCC3)cc2)cc1` are 44 nM and 190 nM.
With `CC(C)(C)c1ccc(NC(=O)c2ccc(-c3ncccc3N)cc2)cc1`, the IC50 in series [1] worked out at 325 nM; in series [4], 123 nM.
The corresponding values for `N#Cc1ccc(NC(=O)c2ccc(-c3ncccc3C(F)(F)F)cc2)cc1` are 1300 nM and 417 nM.
For `CC(=O)Nc1cccnc1-c1ccc(C(=O)Nc2ccc(C(C)(C)C)cc2)cc1`, the IC50 in series [1] came out at 290 nM; in series [4], 1110 nM.
For `CC(C)(C)c1ccc(NC(=O)c2ccc(-c3ncccc3C#N)cc2)cc1`, the IC50 in series [1] came out at 13 nM; in series [4], 30 nM.
On the same counts, the results for `CC(C)(C)c1ccc(NC(=O)c2ccc(-c3ccccn3)cc2)cc1` are 8 nM and 11 nM.
Turning to `Cc1cccnc1-c1ccc(C(=O)Nc2ccc(F)cc2)cc1`, the IC50 in series [1] and in series [4] was > 4000 nM each time.
